Reference: patent publication US8946190B2, “Medium-chain length fatty acids, salts and triglycerides in combination with gemcitabine for treatment of pancreatic cancer” (priority 2007, dated 2015)

Legend:
Panc02 cells = experiment: In vitro cytotoxicity (MTT) on pancreatic cancer cells; type: cell-based; conditions: Mus musculus, 24 h cell culture
Method: This assay was performed to determine the effect of compounds of the present invention on cell cytotoxicity. Panc02 cells were incubated in presence or absence of compounds in RPMI-1640 conditioned media. After 24 hours incubation, 50 μl of 3-(4,5-dimethyl-2-thiazyl)-2,5-diphenyl-2H-tetrazolium bromide ([…]; 2 mg/ml) was added and further incubated for 4 hours. The supernatant was discarded and 100 μl of dimethylsulfoxide (DMSO) was added. Absorbance was read at 570 nm with an ELISA Tecan Sunrise plate reader. The control group consisted of cells without compounds and is referred to as 100% of viable cells. IC50 was determined using Prism software.

[1] = system: syngeneic Panc02 pancreas tumor; experiment: Panc02 mouse pancreatic cancer model, intradermal syngeneic tumor growth; type: in vivo, C57BL/6 mice; conditions: for anticancer activity in the early phase of the treatment: given alone
Method: The syngeneic Panc02 is a pancreatic adenocarcinoma tumor cell line obtained from NCI (0507232). Panc02 cells are positive for Ki-Ras, p53, HerNEU and CDK. Panc02 were grown in RPMI-1640 containing 10% fetal bovine serum. At day 0, 50 μl of 7.5×10^5 viable Panc02 cells were intradermally injected to produce localized tumors in 6- to 8-week old C57BL/6 mice. The animals were then serially monitored by manual palpation for evidence of tumor. Mice were then treated every day with oral administration of vehicle (negative control), or sodium decanoate and with intraperitoneal injection of gemcitabine (50 mg/kg) at day 21, 28, 35 and 42. Mice were sacrificed between days 36 to 50. Serial tumor volume was obtained by bi-dimensional diameter measurements with calipers, using the formula 0.4 (a×b^2) where “a” was the major tumor diameter and “b” the minor perpendicular diameter. Tumors were palpable, in general, 3-5 days post-inoculation. Percentage of tumor growth is reported as the percentage of growth of the pancreatic tumor on a given day relative to that growth which is observed on the first day of treatment with medium-chain length fatty acid, or sodium salt or triglyceride or vehicle (control). T/C is defined as: Treated Tumor Growth CYO/Control Tumor Growth (%).
The effect of sodium dodecanoate and gemcitabine in pancreatic Panc02 cancer was determined as described in Example 2.

[2] = system: metastatic pancreatic cancer; conditions: pancreatic cancer patients after metastasis; cited from earlier work
[3] = system: orthotopic syngeneic Panc02 pancreatic tumor; experiment: Panc02 mouse orthotopic pancreatic cancer model, survival; type: in vivo, C57BL/6 mice; parameters: % Survival: concentration or dose not given beside the values; conditions: for % Survival: Table 2
Method: At day 0, 50 μl of 1×10^6 viable Panc02 cells per ml were injected onto the pancreas to produce orthotopic tumors in 6- to 8-week old C57BL/6 mice. Mice were then treated every day with oral administration of vehicle (negative control), or sodium decanoate and with intraperitoneal injection of gemcitabine (50 mg/kg) once a week (day 1, 8, 15, etc.).
The effect of gemcitabine and tricaprin in combination with gemcitabine in orthotopic pancreatic Panc02 cancer was determined as described in Example 3.

[4] = system: syngeneic Panc02 pancreas tumor; experiment: Panc02 mouse pancreatic cancer model, intradermal syngeneic tumor growth; type: in vivo, C57BL/6 mice

Compound: CCCCCCCCCCCC(=O)[O-].[Na+] [Sodium dodecanoate]
- IC50 (Panc02 cells): 150 µM
- inhibition of tumor growth (p<0.05) ([1]; FIG. 6, sodium dodecanoate oral 200 mg/kg, day 44): significant inhibition

Compound: Nc1ccn([C@@H]2O[C@H](CO)[C@@H](O)C2(F)F)c(=O)n1 [Gemcitabine]
- one-year survival [2]: 18%
- survival compared with mice that had received vehicle ([3]; FIG. 5): prolonged survival
- Median survival ([3]; FIG. 5, gemcitabine 50 mg/kg once a week, sodium decanoate oral 200 mg/kg every day): 71 days
- survival compared with mice that had received vehicle ([3]; FIG. 7): prolonged survival
- Median survival ([3]; FIG. 7, gemcitabine 50 mg/kg, tricaprin oral 600 mg/kg): 53.5 days
- % Survival ([3]; day 58): 86%
- % Survival ([3]; day 72): 42%
- % Survival ([3]; day 83): 28%
- % Survival ([3]; day 87): 14%
- % Survival ([3]; day 92): 0%
- % Survival ([3]; day 92, listed as gemcitabine): all mice are dead
- T/C ([4]; FIG. 3, gemcitabine 25 mg/kg alone): > 40
- inhibition of tumor growth (p<0.05) ([4]; FIG. 3, gemcitabine 25 mg/kg, day 39): significant inhibition
- T/C ([4]; FIG. 4, gemcitabine 10 mg/kg alone): no T/C<40
- inhibition of tumor growth (p<0.05) ([4]; FIG. 4, gemcitabine 10 mg/kg, day 41): significant inhibition
- inhibition of tumor growth (p<0.05) ([1]; FIG. 1, gemcitabine 50 mg/kg, day 27 to 34): significant inhibition
- inhibition of tumor growth (p<0.05) ([1]; FIG. 2, gemcitabine alone, day 23 to 37): significant (p<0.05) inhibition
- anticancer activity in the early phase of the treatment ([1]; FIG. 3): did not display anticancer activities
- anticancer activity in the early phase of the treatment ([1]; FIG. 4): did not display anticancer activities
- inhibition of tumor growth (p<0.05) ([1]; FIG. 6, gemcitabine 50 mg/kg, day 44): significant inhibition
- mortality ([1]; increased concentration of gemcitabine): mortality is observed

Compound: CCCCCCCCCC(=O)[O-].[Na+] [PBI-1402]
- anticancer activity in the early phase of the treatment ([1]; FIG. 3): did not display anticancer activities
- anticancer activity in the early phase of the treatment ([1]; FIG. 4): did not display anticancer activities

Compound: CCCCCCCCCC(=O)[O-].[Na+] [Sodium decanoate]
- IC50 (Panc02 cells): 520 µM
- inhibition of tumor growth (p<0.05) ([1]; FIG. 1, sodium decanoate oral 100 mg/kg, day 23 to 44): significant inhibition
- tumor growth inhibition compared to control (p<0.05) ([1]; FIG. 2, sodium decanoate 400 mg/kg, day 23 to 37): significant
- inhibition of tumor growth (p<0.05) ([1]; FIG. 2, sodium decanoate oral 100, 200 and 400 mg/kg): significant (p<0.05) inhibition of the tumor growth in a dose dependent fashion

Compound: CCCCCCCCCC(=O)O [Decanoic acid]
- IC50 (Panc02 cells): 630 µM
